Experiments:
maize plants [1] = test: Heat stress experiment with maize plants, seed dressing with active substance; format: in vivo, maize cv. Lorenzo
Excerpt: Maize seeds cv. Lorenzo were dressed as in example 1 with the compound 4-cyclopropylaminocarbonyl-N-(2-methoxybenzoyl)benzenesulfonamide (=VIII-3) or treated only with solvent without active substance. The seedlings were raised for 10 days in the controlled-environment chamber under defined conditions, likewise as described in example 1.2×10 pots with maize plants were used for the heat stress experiment. The control group consisted of undressed plants (solvent), the test group of plants which had been dressed with active substance. To apply the heat stress conditions, both plant groups were placed for 2 days into a controlled-environment cabinet at 45′C, white light, long day (16 hours fight, 8 hours dark) and 70% atmospheric humidity. To avoid desiccation as the result of the high temperature, the plants were irrigated once per day from below by raising the water level in a tray. After the heat stress, it was observed that—especially in the control group—the shoots of many plants had collapsed and that the leaves were lying flat on the ground.
The experiment was valued quantitatively, taking into consideration the following criteria.
After the heat treatment, the plants which had collapsed were counted and the result per pot was assessed:
Thereafter, all plants were grown on for 2 weeks under standard conditions. Then, the length increment of the individual plants was measured, and the survival rate of the plants per pot was determined: […]

maize plants [2] = test: Chill stress experiment (field) with maize plants, seed dressing; format: in vivo, maize (dent com); conditions: for Chill damage [%]: number of plants with chill damage > 20% of the total number of plants in the test plot
Method: One control plant contains untreated seed. Approximately 8 days after the seed emerged, the seedlings were in the one-leaf stage and were exposed for 5 days to the following temperature conditions:
After this chill period, the test plots were scored. For this purpose, all plants were assessed individually, and plants with at least 20% chill symptoms based on the total leaf area (burns and/or chloroses) were considered to be damaged.

[3] = test system: Zm.10097.1.A1_at expressed protein; test: Gene expression profiling (maize genome array), drought stress; format: in vivo, maize cv. Lorenzo; conditions: vs unstressed solvent-dressed control
Method: (§1) Maize seeds cv. Lorenzo were dressed as described in example 1 with the compound VIII-3 (=4-cyclopropylaminocarbonyl-N-(2-methoxybenzoyl)benzenesulfonamide) or with solvent. The plants were raised for 10 days in a controlled-environment chamber (conditions: see example 1).
(§2) Thereafter, the plants were exposed to the following stress conditions: • (1) Heat stress: 6 h at 45° C. • (2) Drought stress: 7 days without irrigation, 24° C.
(§3) The control plants of the specific experimental group were kept under the standard conditions described in example 1 (temperature, irrigation).
(§4) After the stress treatment, the leaves of the stressed plants and of the unstressed control plants were harvested, shock-frozen in liquid nitrogen and stored at −80° C. until processed. All experiments were carried out in replications of in each case 2 pots.
(§5) The labeled RNA probes for the DNA chip hybridization were prepared as described in the protocols (Expression Analysis. Technical Manual) from Affymetrix (Affymetrix Inc., 3380 Central Expressway, Santa Clara, Calif., USA). First, total RNA was isolated from in each case 500 mg of the harvested leaves. In each case 10 μg of total RNA were used for the cDNA first- and second-strand synthesis. The cDNA was amplified with T7 polymerase and simultaneously labeled with biotin-UTP. In each case 20 μg of this biotinylated […] were employed for the hybridization of the maize genome array from Affymetrix. This DNA microarray contains DNA sequences whose totality represents 13339 genes. Thereafter, the DNA microarrays were washed in the Affymetrix Fluidics Station, stained with streptavidin/phycoerythrin (Molecular Probes, P/N S-866) and scanned with the appropriate Agilent Laser Scanner (Agilent Gene Array Scanner). The fluorescence data obtained were analyzed using Affymetrix's Microarray Suite 5 software. After the quality assurance had been performed, all DNA chip analyses were stored in a database. To determine relevant expression values (induction factors, repression factors), the absolute expression values of the genes from the respective stress experiments were compared with the values of the respective control experiments (i.e. without abiotic stress and solvent-dressing only), based on the scoring function predetermined by the Affymetrix software. The resulting 4 expression values per gene were averaged by calculating the median value. These median values are shown in the results tables as induction factors. Similarity comparisons of expression profiles of various experiments and cluster analyses were carried out using the “genedata expressionist” software from Genedata (Genedata, Maulbeerstr. 46, CH-4016 Basel, Switzerland).
(§6) The induction patterns derived from table 5 and which are shown directly by the resulting expression values show characteristic inductions by the action of the compound 4-cyclopropylaminocarbonyl-N-(2-methoxybenzoyl)benzenesulfonamide (=VIII-3), the effect on the putative N-carbamyl-L-amino acid amidohydrolase [Zm.11840.1.A1_at] and on the putative serine carboxypeptidase [Zm18994.2.A1-at] being most pronounced. • b) Under dried stress conditions, i.e. the tested maize plants (dressed with 2 mg a.i. 4-cyclopropylaminocarbonyl-N-(2-methoxybenzoyl)benzenesulfonamide/g seeds) were exposed to a temperature of 24° C. for 7 hours 7 days after germination.
(§7) • Condition A: drought stress (7 days, 24° C.) • Condition B: Seeds dressed with 4-cyclopropylaminocarbonyl-N-(2-methoxybenzoyl)benzenesulfonamide (VIII-3)/NO drought stress • Condition C: Seeds dressed with 4-cyclopropylaminocarbonyl-N-(2-methoxybenzoyl)benzenesulfonamide (VIII-3)+drought stress (7 days, 24° C.).

[4] = test system: Zm.12035.1.A1_at similar to AT3G10120; test: as above; format: in vivo, maize cv. Lorenzo; conditions: vs unstressed solvent-dressed control
Method: as §1, §2, §3, §4, §5, §6, §7

[5] = test system: Zm.13229.1.S1_at NBS-LRR type disease resistance protein O2 (fragment); test: as above; format: in vivo, maize cv. Lorenzo; conditions: vs unstressed solvent-dressed control
Method: as §1, §2, §3, §4, §5, §6, §7

[6] = test system: Zm.18273.1.S1_at regulatory protein-like; test: as above; format: in vivo, maize cv. Lorenzo; conditions: vs unstressed solvent-dressed control
Method: as §1, §2, §3, §4, §5, §6, §7

[7] = test system: Zm.18682.1.A1_at unknown protein; test: as above; format: in vivo, maize cv. Lorenzo; conditions: vs unstressed solvent-dressed control
Method: as §1, §2, §3, §4, §5, §6, §7

[8] = test system: Zm.3633.4.A1_at wound induced protein (fragment); test: as above; format: in vivo, maize cv. Lorenzo; conditions: vs unstressed solvent-dressed control
Method: as §1, §2, §3, §4, §5, §6, §7

[9] = test system: Zm.485.1.A1_at non-symbiotic hemoglobin (HBT) (ZEAMP GLB1); test: as above; format: in vivo, maize cv. Lorenzo; conditions: vs unstressed solvent-dressed control
Method: as §1, §2, §3, §4, §5, §6, §7

[10] = test system: Zm.818.1.A1_at universal stress protein; test: as above; format: in vivo, maize cv. Lorenzo; conditions: vs unstressed solvent-dressed control
Method: as §1, §2, §3, §4, §5, §6, §7

[11] = test system: Zm.818.2.A1_at expressed protein; test: as above; format: in vivo, maize cv. Lorenzo; conditions: vs unstressed solvent-dressed control
Method: as §1, §2, §3, §4, §5, §6, §7

[12] = seeds dressed, after heat stress
[13] = seeds dressed with VIII-3 (2 mg a.i./g seeds), NO drought stress
[14] = seeds dressed with VIII-3 + drought stress (7 days, 24° C.)

COc1ccccc1C(=O)NS(=O)(=O)c1ccc(C(=O)NC2CC2)cc1 [VIII-3, 4-cyclopropylaminocarbonyl-N-(2-methoxybenzoyl)benzenesulfonamide]
Interim score (collapsed plants) (maize plants [1]; +S/+H: seeds dressed, heat stress 2 days 45° C, one symbol per pot (10 pots)): ◯◯◯◯◯◯◯◯◯◯ | "standing" of the plants after heat stress (maize plants [1]; [12]): considerably better | survival rate compared with the control group (maize plants [1]; [12]): significantly higher | Chill damage [%] (maize plants [2]; dressed with 0.003 mg per seed): 12% | Chill damage [%] (maize plants [2]; dressed with 0.03 mg per seed): 12% | chill damage compared with control plot (maize plants [2]; test plots with dressing with active substance): significantly reduced | plants showing damage symptoms (maize plants [2]; test plots with dressing with active substance (both quantities)): approximately 12% | induction factor Zm.10097.1.A1_at, Condition B [3, 13]: 1.27 | induction factor Zm.10097.1.A1_at, Condition C [3, 14]: 3.29 | induction factor Zm.12035.1.A1_at, Condition B [4, 13]: 0.90 | induction factor Zm.12035.1.A1_at, Condition C [4, 14]: 3.66 | induction factor Zm.13229.1.S1_at, Condition B [5, 13]: 1.02 | induction factor Zm.13229.1.S1_at, Condition C [5, 14]: 3.39 | induction factor Zm.18273.1.S1_at, Condition B [6, 13]: 0.95 | induction factor Zm.18273.1.S1_at, Condition C [6, 14]: 2.91 | induction factor Zm.18682.1.A1_at, Condition B [7, 13]: 1.12 | induction factor Zm.18682.1.A1_at, Condition C [7, 14]: 4.19 | induction factor Zm.3633.4.A1_at, Condition B [8, 13]: 0.74 | induction factor Zm.3633.4.A1_at, Condition C [8, 14]: 3.03 | induction factor Zm.485.1.A1_at, Condition B [9, 13]: 1.00 | induction factor Zm.485.1.A1_at, Condition C [9, 14]: 5.49 | induction factor Zm.818.1.A1_at, Condition B [10, 13]: 1.12 | induction factor Zm.818.1.A1_at, Condition C [10, 14]: 8.47 | induction factor Zm.818.2.A1_at, Condition B [11, 13]: 1.10 | induction factor Zm.818.2.A1_at, Condition C [11, 14]: 5.40
